Results from ChEMBL document CHEMBL4342418, “1,2,3-Triazole-containing hybrids as potential anticancer agents: Current developments, action mechanisms and structure-activity relationships” (Eur J Med Chem, 2019).
≈ marks a conversion by molar mass, not a printed value. Values belong to the compound of their own block, whether it stands above or below them.

Columns and labels:
[1] = test system: T47D; experiment: Antiproliferative activity against human T47D cells assessed as reduction in cell viability after 48 hrs by MTT assay; type: functional, cell-based
[2] = test system: Caco-2; experiment: Antiproliferative activity against human Caco2 cells assessed as reduction in cell viability after 48 hrs by MTT assay; type: functional, cell-based; settings: Caco-2, 48 h
[3] = test system: MCF7; experiment: Antiproliferative activity against human MCF7 cells assessed as reduction in cell viability after 48 hrs by MTT assay; type: functional, cell-based; settings: MCF7, 48 h
[4] = test system: HCT-116; experiment: Antiproliferative activity against human HCT116 cells assessed as reduction in cell viability after 48 hrs by MTT assay; type: functional, cell-based; settings: HCT-116, 48 h
[5] = test system: HeLa; experiment: Antiproliferative activity against human HeLa cells assessed as reduction in cell viability after 48 hrs by MTT assay; type: functional, cell-based
[6] = test system: MDA-MB-231; experiment: Antiproliferative activity against human MDA-MB-231 cells assessed as reduction in cell viability after 48 hrs by MTT assay; type: functional, cell-based; settings: MDA-MB-231, 48 h
[7] = test system: MGC-803; experiment: Antiproliferative activity against human MGC803 cells by MTT assay; type: functional, cell-based
[8] = test system: HepG2; experiment: Antiproliferative activity against human HepG2 cells by MTT assay; type: functional, cell-based
[9] = test system: SK-N-SH; experiment: Antiproliferative activity against human SK-N-SH cells by MTT assay; type: functional, cell-based
[10] = test system: SW480; experiment: Antiproliferative activity against human SW480 cells assessed as reduction in cell viability after 48 hrs by MTT assay; type: functional, cell-based; settings: SW480, 48 h
[11] = test system: A549; experiment: Antiproliferative activity against human A549 cells assessed as reduction in cell viability after 48 hrs by MTT assay; type: functional, cell-based; settings: A549, 48 h
[12] = Antiproliferative activity against human SMCC7721 cells assessed as reduction in cell viability after 48 hrs by MTT assay; type: functional, cell-based
[13] = test system: SK-BR-3; experiment: Antiproliferative activity against human SKBR3 cells assessed as reduction in cell viability after 72 hrs by MTT assay; type: functional, cell-based; settings: SK-BR-3, 72 h
[14] = test system: SUM-159-PT; experiment: Antiproliferative activity against human SUM159 cells assessed as reduction in cell viability after 72 hrs by MTT assay; type: functional, cell-based
[15] = test system: KG-1a; experiment: Antiproliferative activity against human KG1a cells assessed as reduction in cell viability after 72 hrs by MTT assay; type: functional, cell-based
[16] = test system: C2C12; experiment: Cytotoxicity against mouse C2C12 cells assessed as reduction in cell viability after 48 hrs by MTT assay; type: cell-based; settings: C2C12, 48 h
[17] = test system: HEK293; experiment: Cytotoxicity against HEK293 cells assessed as reduction in cell viability after 48 hrs by MTT assay; type: cell-based; settings: Homo sapiens, HEK293, 48 h
[18] = test system: DU-145; experiment: Antiproliferative activity against human DU145 cells assessed as reduction in cell viability after 48 hrs by MTT assay; type: functional, cell-based; settings: DU-145, 48 h
[19] = test system: DU-145; experiment: Antiproliferative activity against human DU145 cells by SRB assay; type: functional, cell-based
[20] = test system: A549; experiment: Antiproliferative activity against human A549 cells by SRB assay; type: functional, cell-based
[21] = test system: HepG2; experiment: Antiproliferative activity against human HepG2 cells by SRB assay; type: functional, cell-based
[22] = test system: HeLa; experiment: Antiproliferative activity against human HeLa cells by SRB assay; type: functional, cell-based
[23] = test system: MDA-MB-231; experiment: Antiproliferative activity against human MDA-MB-231 cells by SRB assay; type: functional
[24] = test system: HCT-116; experiment: Antiproliferative activity against human HCT116 cells by MTT assay; type: functional, cell-based
[25] = test system: MCF7; experiment: cells; type: functional, cell-based; settings: Homo sapiens
Description: Antiproliferative activity against human MCF7 cells by MTT assay

IC50 [1]: 33 to 154 µM
IC50 [2]: 33 to 154 µM
IC50 [3]: 33 to 154 µM
IC50 [4]: 33 to 154 µM
Structure (SMILES): O=C(Cn1cc(C(O)c2ccccc2)nn1)N1CCN(c2nc3ccccc3s2)CC1 (stereo not given)

IC50 [5]: 4.8 to 9.21 µM
IC50 [6]: 4.8 to 9.21 µM
IC50 [3]: 4.8 to 9.21 µM
Structure (SMILES): N#CC1=C(N)Oc2ccccc2C12C(=O)N(Cc1cn(CCCCBr)nn1)c1ccccc12 (stereo not given)

IC50 [7]: 1.52 to 10.4 µM
IC50 [8]: 1.52 to 10.4 µM
IC50 [9]: 1.52 to 10.4 µM
Structure (SMILES): COc1cc(/C=C/C(=O)c2ccc(OCCCn3cc(CSC4=NCCS4)nn3)cc2)cc(OC)c1OC

IC50 [10]: 0.67 to 7.41 µM
IC50 [3]: 0.67 to 7.41 µM
IC50 [11]: 0.67 to 7.41 µM
Structure (SMILES): COc1cc([C@@H]2c3cc4c(cc3[C@H](n3cc(CO[C@@H]5O[C@H](CO[C@@H]6O[C@H](CO)[C@@H](O)[C@H](O)[C@H]6O)[C@@H](O)[C@H](O)[C@H]5O)nn3)[C@H]3COC(=O)[C@H]23)OCO4)cc(OC)c1OC
IC50 [12]: 0.67 to 7.41 µM

IC50 [7]: 1.52 to 10.4 µM
IC50 [8]: 1.52 to 10.4 µM
IC50 [9]: 1.52 to 10.4 µM
Structure (SMILES): COc1cc(/C=C/C(=O)c2ccc(OCCCn3cc(CSc4nnnn4C)nn3)cc2)cc(OC)c1OC

IC50 [13]: 9.76 to 20.1 µM
Structure (SMILES): CS(=O)(=O)CCNCc1ccc(-c2ccc3ncnc(Nc4ccc(OCc5cccc(F)c5)c(Cl)c4)c3c2)o1 [LAPATINIB]
IC50 [14]: 9.76 to 20.1 µM
IC50 [15]: 9.76 to 20.1 µM

IC50 [3]: 7.1 to 13.4 µM
IC50 [4]: 7.1 to 13.4 µM
Structure (SMILES): O=C(Nc1cccc(-n2cc(Oc3ccc(-c4cc(-c5ccc(Oc6cn(-c7cccc(NC(=O)[C@@H]8CCCN8)c7)nn6)cc5)cc(-c5ccc(Oc6cn(-c7cccc(NC(=O)[C@@H]8CCCN8)c7)nn6)cc5)c4)cc3)nn2)c1)[C@@H]1CCCN1
IC50 [16]: > 40 µM

IC50 [6]: 0.51 to 3.98 µM
IC50 [11]: 0.51 to 3.98 µM
IC50 [18]: 0.51 to 3.98 µM
IC50 [4]: 0.51 to 3.98 µM
Structure (SMILES): O=C(c1cn(Cc2ccc(-c3ccc(Cl)cc3)cc2)nn1)c1c(-c2ccccc2)nc2ccccn12
IC50 [17]: 91.2 µM

IC50 [1]: 33 to 48 µM
IC50 [2]: 33 to 48 µM
IC50 [3]: 33 to 48 µM
IC50 [4]: 33 to 48 µM
Structure (SMILES): O=C(Cn1cc(CCCO)nn1)N1CCN(c2nc3ccccc3s2)CC1

GI50 [19]: 1.3 to 8.2 µM
GI50 [20]: 1.3 to 8.2 µM
GI50 [21]: 1.3 to 8.2 µM
GI50 [22]: 1.3 to 8.2 µM
Structure (SMILES): COc1ccc(/C=C/C(=O)c2cc(OC)c(OC)c(OC)c2)cc1OCc1cn(Cc2ccc(F)cc2)nn1

Structure (SMILES): O=c1oc(-c2ccccc2)nn1Cc1cn(Cc2ccccc2)nn1
GI50 [19]: 0.82 to 2.39 µM
GI50 [21]: 0.82 to 2.39 µM
GI50 [23]: 0.82 to 2.39 µM
GI50 [22]: 0.82 to 2.39 µM

IC50 [13]: 2.06 to 7.47 µM
Structure (SMILES): CCCN1CCC(NCc2cn(-c3ccc4ncnc(Nc5ccc(OCc6cccc(F)c6)c(Cl)c5)c4c3)nn2)CC1
IC50 [14]: 2.06 to 7.47 µM
IC50 [15]: 2.06 to 7.47 µM

IC50 [3]: 1.7 µM
IC50 [4]: 1.3 µM
Structure (SMILES): CN(C)CCCOc1cc(C(=O)NCc2cn(-c3cccc(NC(=O)[C@@H]4CCCN4)c3)nn2)nc(C(=O)NCc2cn(-c3cccc(NC(=O)[C@H]4CCCN4)c3)nn2)c1
IC50 [16]: > 40 µM

IC50 [13]: 2.06 to 7.47 µM
Structure (SMILES): Fc1cccc(COc2ccc(Nc3ncnc4ccc(-n5cc(CNC6CCN(Cc7cccnc7)CC6)nn5)cc34)cc2Cl)c1
IC50 [14]: 2.06 to 7.47 µM
IC50 [15]: 2.06 to 7.47 µM

IC50 [24]: > 100 µg/mL
IC50 [8]: > 100 µg/mL
IC50 [25]: 3.46 µg/mL (≈ 5.13 µM)
Structure (SMILES): CNC(=S)N1N=C(c2nnn(-c3ccc(-n4nnc(C5=NN(C(=S)NC)C(c6ccccc6)C5)c4C)cc3)c2C)CC1c1ccccc1 (stereo not given)

IC50 [24]: > 100 µg/mL
IC50 [8]: > 100 µg/mL
IC50 [25]: 66.8 µg/mL (≈ 109 µM)
Structure (SMILES): CC(=O)N1N=C(c2nnn(-c3ccc(-n4nnc(C5=NN(C(C)=O)C(c6ccccc6)C5)c4C)cc3)c2C)CC1c1ccccc1 (stereo not given)

Structure (SMILES): Cc1ccc(-c2nn(Cc3cn(Cc4ccccc4)nn3)c(=O)o2)cc1
GI50 [19]: 0.82 to 2.39 µM
GI50 [21]: 0.82 to 2.39 µM
GI50 [23]: 0.82 to 2.39 µM
GI50 [22]: 0.82 to 2.39 µM

IC50 [3]: 14.4 µM
IC50 [4]: 15.1 µM
Structure (SMILES): CN(C)CCCOc1cc(C(=O)NCc2cn(-c3ccc(NC(=O)[C@@H]4CCCN4)cc3)nn2)nc(C(=O)NCc2cn(-c3ccc(NC(=O)[C@H]4CCCN4)cc3)nn2)c1
IC50 [16]: > 40 µM

IC50 [13]: 2.06 to 7.47 µM
Structure (SMILES): Fc1cccc(COc2ccc(Nc3ncnc4ccc(-n5cc(CN6CCCC6)nn5)cc34)cc2Cl)c1
IC50 [14]: 2.06 to 7.47 µM
IC50 [15]: 2.06 to 7.47 µM
